The values that follow come from paper PMC6615261, “Repurposing Azithromycin and Rifampicin Against Gram-Negative Pathogens by Combination With Peptidomimetics” (Frontiers in Cellular and Infection Microbiology, 2019).

Molecules are shown by their SMILES. Read-outs that look alike come from different tables or passages of the source.

One experiment deals with MDR E. coli ST131. Description: Screening of peptidomimetic-antibiotic combinations (growth / growth inhibition). Format: cell-based, Escherichia coli. Details: key to Growth in combination with RIF / Growth in combination with AZM: Growth (+); growth inhibition (–).
The subject of experiment [1] is P. aeruginosa ATCC 27853. Description: MIC by broth microdilution. The experiment is classed as cell-based, Pseudomonas aeruginosa. Conditions: peptidomimetic alone. The gist of the method:
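MICs were determined by CLSI broth microdilution. Combinations used fixed peptidomimetic:antibiotic ratios of 2:1 with rifampicin and 1:4 with azithromycin, and potentiation of other antibiotics was tested on COMPAN1F panels. MBCs came from OD600 growth curves over 24 h at 37°C, followed by plating of wells without growth onto MHA.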
For orientation: Dilution methods test growth across graded concentrations, often in twofold steps.

For a further experiment, the system named is E. coli ST131. Put shortly: (§1)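 Two-dimensional checkerboard broth microdilution in MHB II, with twofold dilutions of peptidomimetic and antibiotic on crossed axes and 18–20 h incubation per CLSI. FICI = MICA(A+B)/MICA(alone) + MICB(A+B)/MICB(alone); ≤0.5 is interpreted as synergy.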
The subject of another experiment is K. pneumoniae ST258. The gist of the method:
as §1

Experiment [2] has as its system P. aeruginosa ATCC 27853. Put shortly:
as §1

The subject of experiment [3] is P. aeruginosa clinical isolates and reference strains. Description: MIC of fixed-ratio peptidomimetic 1-antibiotic combinations in clinical isolates and reference strains. Format: cell-based, Pseudomonas aeruginosa. The conditions noted are these: with rifampicin or azithromycin. The source says: (§2) Bacterial strains used in this study comprise MDR clinical isolates of E. coli ST131 (Cerquetti et al., [2010]) and K. pneumoniae ST258 (Jana et al., [2017]), and American type culture collection (ATCC) strains: ATCC 25922 (E. coli), ATCC 13883 (K. pneumoniae), and ATCC 27853 (P. aeruginosa). Additional clinical isolates of E. coli, K. pneumoniae, and P. aeruginosa resistant to β-lactams (including carbapenems and cephalosporins) were provided by Laurent Poirel, Université de Fribourg, Switzerland. The following growth media was routinely used for bacterial culturing: Luria-Burtani (LB), cation-adjusted Mueller-Hinton agar (MHA) and broth (MHB II). All assays were performed in cation-adjusted MHA or MHB II. Antibiotics were purchased from Sigma-Aldrich and the peptidomimetic collection (Table S1) was curated and provided by Henrik Franzyk. […]
Minimal inhibitory concentrations (MICs) of peptidomimetics, antibiotics and their combinations were determined by broth microdilution according to the Clinical Laboratory Standards Institute performance standards (Clinical and Laboratory Standards Institute, [2013]). […] Potentiation of additional antibiotics by peptidomimetics was determined by using commercial 96-well plates containing varied concentrations of standard antibiotics (COMPAN1F; Trek Diagnostic Systems Inc.). The peptidomimetics were added immediately prior to inoculation with pathogen, and then MICs were determined as above. The MICs of peptidomimetic/antibiotic combinations were determined according to the method above, and the concentration ratios were selected based upon checkerboard results with 2:1 and 1:4 ratio of peptidomimetic with rifampicin or azithromycin, respectively. Minimal bactericidal concentrations (MBCs) were determined by using growth-curve assay plates. […] Growth was recorded at 10 min intervals as optical density (OD) at 600 nm during 24 h. […]

Experiment [4] deals with isolates of E. coli, K. pneumoniae and P. aeruginosa. Description: Induction of susceptibility in MDR isolates (summary over all three species). The experiment is classed as cell-based. The conditions noted are these: peptidomimetic 1 at ≤1 μM; 30 of 36 isolates.
Text: as §2, with “II.” for “II. Antibiotics were purchased from Sigma-Aldrich and the peptidomimetic collection (Table S1) was curated and provided by Henrik Franzyk.”
Minimal inhibitory concentrations (MICs) of peptidomimetics, antibiotics and their combinations were determined by broth microdilution according to the Clinical Laboratory Standards Institute performance standards (Clinical and Laboratory Standards Institute, [2013]). […] Potentiation of additional antibiotics by peptidomimetics was determined by using commercial 96-well plates containing varied concentrations of standard antibiotics (COMPAN1F; Trek Diagnostic Systems Inc.). The peptidomimetics were added immediately prior to inoculation with pathogen, and then MICs were determined as above. […] Minimal bactericidal concentrations (MBCs) were determined by using growth-curve assay plates. […]

Where [5] appears, read: MIC of azithromycin combined with the labelled peptidomimetic.
Where [6] appears, read: MIC of rifampicin combined with the labelled peptidomimetic.

`NCCCC[C@H](NC(=O)CCN(Cc1ccccc1)C(=O)[C@H](CCCCN)NC(=O)CCN(Cc1ccccc1)C(=O)[C@H](CCCCN)NC(=O)CCN(Cc1ccccc1)C(=O)[C@H](CCCCN)NC(=O)CCN(Cc1ccccc1)C(=O)[C@H](CCCCN)NC(=O)CCN(Cc1ccccc1)C(=O)[C@H](CCCCN)NC(=O)CCN(Cc1ccccc1)C(=O)[C@H](CCCCN)NC(=O)CCN(Cc1ccccc1)C(=O)[C@@H](N)CCCCN)C(=O)N(CCC(N)=O)Cc1ccccc1` [Peptidomimetic 1, H-(Lys-βNPhe)8-NH2]: the “Screening result with rifampicin” value in the experiment with MDR E. coli ST131 (0.5 μM peptidomimetic + 0.5 μg/mL rifampicin) is reported as “inhibit growth”. Besides, the “Screening result with azithromycin” value in the experiment on MDR E. coli ST131 (0.5 μM peptidomimetic + 1 μg/mL azithromycin) was “prevented growth”. Further, in the experiment with MDR E. coli ST131 (peptidomimetic 0.5 μM + azithromycin 1 μg/mL), the “Growth in combination with AZM” value is recorded as “–”. Moreover, the “Growth in combination with RIF” value in the experiment on MDR E. coli ST131 (peptidomimetic 0.5 μM + rifampicin 0.5 μg/mL) is recorded as “–”. Further, the “MIC P. aeruginosa ATCC 27853” value in the experiment with P. aeruginosa ATCC 27853 [1] is 1 µM. The entries for the “Antibiotic MIC in combination (AZM)” value in the experiment on E. coli ST131 (setting [5]) and with K. pneumoniae ST258 (setting [5]) were 1 µg/mL and 4 µg/mL, respectively. Further, the “Antibiotic MIC in combination (RIF)” value in the experiment on E. coli ST131 (setting [6]) was 0.06 µg/mL; in the experiment on K. pneumoniae ST258 (setting [6]), 0.25 µg/mL; in the experiment on P. aeruginosa ATCC 27853 [2] (P. aeruginosa ATCC 27853, MIC of rifampicin combined with the labelled peptidomimetic), 1 µg/mL. Also, the “Peptidomimetic MIC alone” value in the experiment on E. coli ST131 (checkerboard) is 2 µM; in the experiment with K. pneumoniae ST258 (checkerboard), 16 µM; in the experiment on P. aeruginosa ATCC 27853 [2] (P. aeruginosa ATCC 27853, checkerboard) it was 1 µM. In addition, the “Peptidomimetic MIC in combination” value in the experiment with E. coli ST131 (combined with AZM) amounted to 0.25 µM; in the experiment with E. coli ST131 (combined with RIF), 0.5 µM; in the experiment with K. pneumoniae ST258 (combined with AZM), 0.5 µM; with K. pneumoniae ST258 (combined with RIF) it was 0.5 µM; in the experiment on P. aeruginosa ATCC 27853 [2] (P. aeruginosa ATCC 27853, combined with AZM), 0.25 µM; in the experiment on P. aeruginosa ATCC 27853 [2] (P. aeruginosa ATCC 27853, combined with RIF), 0.25 µM. Moreover, in the experiment with P. aeruginosa ATCC 27853 [2] (P. aeruginosa, sub-MIC concentrations of peptidomimetic), the “Reduction of the MIC of azithromycin” value is reported as 32- to 512 fold. In addition, the “Peptidomimetic concentration typically required, P. aeruginosa isolates” value in experiment [3] lay within 1 to 8 µM. Also, in experiment [4], the “Isolates in which susceptibility to rifampicin and azithromycin was induced” value is recorded as 83%.
